The text below walks through data of ChEMBL document CHEMBL1201862, “PubChem BioAssay data set” (2004).

A short description of assay [1]: MC4R antagonists, dose response, counter-screen for LGR2 antagonist project, cell-based, plate reader, cherry pick (AID 743444).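 Further: transfected HEK 293 cells stimulated with alpha-MSH peptide; potency of inhibitors of the alpha-MSH evoked signal.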 The format is functional.
Assay [2] addresses T1, Interleukin-8 (Homo sapiens, UniProt P10145).
T1 sequence (P10145 whole entry): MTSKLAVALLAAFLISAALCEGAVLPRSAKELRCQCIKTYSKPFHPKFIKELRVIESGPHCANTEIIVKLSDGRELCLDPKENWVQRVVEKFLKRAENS
Description: Dose Response confirmation of uHTS small molecule hits for cystic fibrosis induced NFkb Inhibitors in a PAF-induced IL8 counterscreen. The format is functional. To be noted: read-out: IC50_Mean.

In assay [3] the target is T1, Interleukin-8. Description: Dose Response confirmation of uHTS small molecule hits for cystic fibrosis induced NFkb Inhibitors in a TNFa-induced IL8 counterscreen. The format is functional. To be noted: read-out: IC50_Mean.
Assay [4] in a line: HepG2 cell cytotoxicity, dose response, cytotoxicity control, plate reader, cherry-pick, antagonist series (AID 743416). The format is functional, cell-based.
Assay [5] in a line: LGR2 antagonists, dose response, cell-based, HEK293, CRE-luciferase reporter, cherry pick, set 2 (AID 743343).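 Further: transfected cells were stimulated with diluted bursicon conditioned medium after compound addition.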 The format is functional.
Assay [6] concerns the target T2, Mitochondrial peptide methionine sulfoxide reductase (Bos taurus, UniProt P54149).
T2 sequence (P54149 whole entry): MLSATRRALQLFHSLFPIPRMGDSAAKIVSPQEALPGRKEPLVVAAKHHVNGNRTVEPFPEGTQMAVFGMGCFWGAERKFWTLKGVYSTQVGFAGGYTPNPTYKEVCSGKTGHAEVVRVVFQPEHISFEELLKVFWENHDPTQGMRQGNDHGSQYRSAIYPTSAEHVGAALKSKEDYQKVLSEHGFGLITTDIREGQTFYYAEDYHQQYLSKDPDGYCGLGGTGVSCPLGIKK
The format is functional.

In assay [7] the target is DNA (cytosine-5)-methyltransferase 1 (Homo sapiens, UniProt P26358). Description: DNMT1 methyltransferase inhibitors, confirmation, biochemical, fluorescent molecular beacon (AID 602386). The format is functional.
Chain of DNA (cytosine-5)-methyltransferase 1 (P26358 whole entry): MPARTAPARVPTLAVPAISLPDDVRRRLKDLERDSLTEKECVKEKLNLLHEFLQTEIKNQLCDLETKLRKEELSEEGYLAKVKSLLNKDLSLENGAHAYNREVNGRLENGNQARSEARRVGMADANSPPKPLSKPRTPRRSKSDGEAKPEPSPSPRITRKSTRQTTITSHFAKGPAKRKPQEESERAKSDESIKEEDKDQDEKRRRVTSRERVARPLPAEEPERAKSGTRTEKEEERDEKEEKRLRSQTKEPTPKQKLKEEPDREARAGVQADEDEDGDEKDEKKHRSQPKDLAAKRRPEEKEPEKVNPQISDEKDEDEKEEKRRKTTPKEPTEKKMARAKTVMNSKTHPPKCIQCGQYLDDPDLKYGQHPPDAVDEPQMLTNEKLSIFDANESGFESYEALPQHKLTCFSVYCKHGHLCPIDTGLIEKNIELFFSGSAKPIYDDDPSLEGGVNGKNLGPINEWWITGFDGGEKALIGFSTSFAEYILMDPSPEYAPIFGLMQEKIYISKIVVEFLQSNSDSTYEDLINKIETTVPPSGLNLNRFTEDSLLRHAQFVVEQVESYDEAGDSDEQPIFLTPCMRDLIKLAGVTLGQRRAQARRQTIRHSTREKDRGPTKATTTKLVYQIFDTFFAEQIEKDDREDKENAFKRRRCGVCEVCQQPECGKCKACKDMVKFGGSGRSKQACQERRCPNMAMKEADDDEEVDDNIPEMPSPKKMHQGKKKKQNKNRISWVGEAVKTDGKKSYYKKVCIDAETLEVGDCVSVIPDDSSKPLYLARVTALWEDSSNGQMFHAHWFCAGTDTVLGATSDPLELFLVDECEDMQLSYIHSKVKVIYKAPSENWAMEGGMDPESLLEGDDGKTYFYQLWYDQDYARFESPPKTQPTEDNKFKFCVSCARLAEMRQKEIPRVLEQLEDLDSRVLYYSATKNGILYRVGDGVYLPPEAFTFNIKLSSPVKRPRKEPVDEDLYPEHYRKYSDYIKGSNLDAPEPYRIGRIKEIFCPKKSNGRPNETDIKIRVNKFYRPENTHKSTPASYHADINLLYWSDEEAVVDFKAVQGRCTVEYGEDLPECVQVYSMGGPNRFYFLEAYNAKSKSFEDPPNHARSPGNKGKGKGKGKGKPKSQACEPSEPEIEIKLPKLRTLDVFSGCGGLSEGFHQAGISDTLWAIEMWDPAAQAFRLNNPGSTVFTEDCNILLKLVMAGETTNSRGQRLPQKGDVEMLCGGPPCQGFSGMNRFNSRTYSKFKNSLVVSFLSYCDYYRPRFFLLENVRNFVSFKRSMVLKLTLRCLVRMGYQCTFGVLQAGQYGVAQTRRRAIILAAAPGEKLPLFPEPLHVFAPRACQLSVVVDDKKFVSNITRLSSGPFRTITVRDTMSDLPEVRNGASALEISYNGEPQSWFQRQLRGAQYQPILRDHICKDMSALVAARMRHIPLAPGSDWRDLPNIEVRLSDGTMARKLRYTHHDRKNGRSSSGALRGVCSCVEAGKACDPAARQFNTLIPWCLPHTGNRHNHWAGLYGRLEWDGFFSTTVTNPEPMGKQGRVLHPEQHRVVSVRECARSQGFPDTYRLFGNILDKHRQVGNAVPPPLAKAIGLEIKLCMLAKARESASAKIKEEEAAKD
Assay [8] addresses T3, Low molecular weight phosphotyrosine protein phosphatase (Homo sapiens, UniProt P24666).
T3 sequence (P24666 whole entry): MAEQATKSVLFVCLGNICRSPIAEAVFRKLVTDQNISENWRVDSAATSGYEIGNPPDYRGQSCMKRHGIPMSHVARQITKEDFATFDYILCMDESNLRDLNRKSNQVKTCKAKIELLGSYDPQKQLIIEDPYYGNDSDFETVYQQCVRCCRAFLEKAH
The format is functional. Particulars: read-out: IC50_Mean.

Assay [9] has as its target Adenosylmethionine-8-amino-7-oxononanoate aminotransferase (Mycobacterium tuberculosis, UniProt P9WQ81). In words: Mycobacterium tuberculosis BioA enzyme inhibitor Measured in Biochemical System Using Plate Reader - 2163-02_Inhibitor_Dose_CherryPick_Activity. The format is functional, Mycobacterium tuberculosis UT205.
The target of the next assay is T4, Protein skinhead-1 (Caenorhabditis elegans, UniProt P34707).
T4 sequence (P34707 whole entry): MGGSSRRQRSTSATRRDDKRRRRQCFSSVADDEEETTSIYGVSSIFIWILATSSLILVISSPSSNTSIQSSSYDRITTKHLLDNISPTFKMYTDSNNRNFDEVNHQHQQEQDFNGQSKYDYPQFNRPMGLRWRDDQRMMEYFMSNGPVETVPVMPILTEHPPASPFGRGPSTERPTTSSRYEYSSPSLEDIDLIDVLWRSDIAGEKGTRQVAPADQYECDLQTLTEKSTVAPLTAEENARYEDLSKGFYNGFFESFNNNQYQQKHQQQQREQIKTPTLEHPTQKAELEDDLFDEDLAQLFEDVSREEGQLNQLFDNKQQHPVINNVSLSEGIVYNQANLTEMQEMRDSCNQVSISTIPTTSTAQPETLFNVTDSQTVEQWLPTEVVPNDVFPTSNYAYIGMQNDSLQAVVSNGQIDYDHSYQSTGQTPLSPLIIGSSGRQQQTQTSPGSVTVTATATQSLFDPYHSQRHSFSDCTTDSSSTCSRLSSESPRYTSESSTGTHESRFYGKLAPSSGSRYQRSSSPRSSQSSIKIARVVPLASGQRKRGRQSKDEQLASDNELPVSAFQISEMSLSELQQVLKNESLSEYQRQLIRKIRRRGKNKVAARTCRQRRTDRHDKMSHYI
The format is functional.

Assay [10] has as its target T2, Mitochondrial peptide methionine sulfoxide reductase. Description: Absorbance-based biochemical high throughput dose response assay for activators of Methionine sulfoxide reductase A (MsrA). The format is functional.
For assay [11], the target named is T5, Insulin-degrading enzyme (Homo sapiens, UniProt P14735).
T5 sequence (P14735 whole entry): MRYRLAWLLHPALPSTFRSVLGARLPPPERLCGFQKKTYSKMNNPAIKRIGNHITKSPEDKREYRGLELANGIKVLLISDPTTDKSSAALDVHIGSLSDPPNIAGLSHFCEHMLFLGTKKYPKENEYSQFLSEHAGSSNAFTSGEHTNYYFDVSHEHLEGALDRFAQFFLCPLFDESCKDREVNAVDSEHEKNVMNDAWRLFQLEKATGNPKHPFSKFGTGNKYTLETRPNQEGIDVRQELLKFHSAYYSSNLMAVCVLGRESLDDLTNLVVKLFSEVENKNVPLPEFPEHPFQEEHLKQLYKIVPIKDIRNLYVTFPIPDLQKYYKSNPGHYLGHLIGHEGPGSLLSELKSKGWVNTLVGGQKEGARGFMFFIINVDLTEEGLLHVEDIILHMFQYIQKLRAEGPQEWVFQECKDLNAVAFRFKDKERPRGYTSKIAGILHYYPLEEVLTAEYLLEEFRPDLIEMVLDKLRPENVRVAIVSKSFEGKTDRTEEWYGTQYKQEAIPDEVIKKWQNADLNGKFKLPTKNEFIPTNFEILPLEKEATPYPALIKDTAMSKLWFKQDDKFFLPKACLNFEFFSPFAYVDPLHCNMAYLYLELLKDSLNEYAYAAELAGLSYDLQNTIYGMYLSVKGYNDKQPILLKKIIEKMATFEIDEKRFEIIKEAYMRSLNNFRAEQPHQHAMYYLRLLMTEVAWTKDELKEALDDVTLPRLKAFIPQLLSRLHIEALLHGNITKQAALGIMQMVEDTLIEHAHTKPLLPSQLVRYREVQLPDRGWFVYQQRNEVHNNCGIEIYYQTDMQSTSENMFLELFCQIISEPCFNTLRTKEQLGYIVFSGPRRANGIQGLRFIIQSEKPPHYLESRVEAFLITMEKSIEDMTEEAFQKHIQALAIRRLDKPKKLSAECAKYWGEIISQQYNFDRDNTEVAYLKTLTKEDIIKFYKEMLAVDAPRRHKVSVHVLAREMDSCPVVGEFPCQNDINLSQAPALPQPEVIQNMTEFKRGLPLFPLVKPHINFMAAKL
In words: activators of endogenous IDE in HEK cells, dose response, cell-based, fluorescence polarization (AID 588439). The format is functional.

The subject of assay [12] is HEK293. Description: optical interference in Abeta FP readout, dose response, artefact control for IDE activator project, biochemical, fluorescence polarization (AID 588442). Particulars: Homo sapiens. The format is functional, cell-based.
Another assay addresses T6, ORF 73 (Human herpesvirus 8, UniProt O40947).
T6 sequence (O40947 whole entry): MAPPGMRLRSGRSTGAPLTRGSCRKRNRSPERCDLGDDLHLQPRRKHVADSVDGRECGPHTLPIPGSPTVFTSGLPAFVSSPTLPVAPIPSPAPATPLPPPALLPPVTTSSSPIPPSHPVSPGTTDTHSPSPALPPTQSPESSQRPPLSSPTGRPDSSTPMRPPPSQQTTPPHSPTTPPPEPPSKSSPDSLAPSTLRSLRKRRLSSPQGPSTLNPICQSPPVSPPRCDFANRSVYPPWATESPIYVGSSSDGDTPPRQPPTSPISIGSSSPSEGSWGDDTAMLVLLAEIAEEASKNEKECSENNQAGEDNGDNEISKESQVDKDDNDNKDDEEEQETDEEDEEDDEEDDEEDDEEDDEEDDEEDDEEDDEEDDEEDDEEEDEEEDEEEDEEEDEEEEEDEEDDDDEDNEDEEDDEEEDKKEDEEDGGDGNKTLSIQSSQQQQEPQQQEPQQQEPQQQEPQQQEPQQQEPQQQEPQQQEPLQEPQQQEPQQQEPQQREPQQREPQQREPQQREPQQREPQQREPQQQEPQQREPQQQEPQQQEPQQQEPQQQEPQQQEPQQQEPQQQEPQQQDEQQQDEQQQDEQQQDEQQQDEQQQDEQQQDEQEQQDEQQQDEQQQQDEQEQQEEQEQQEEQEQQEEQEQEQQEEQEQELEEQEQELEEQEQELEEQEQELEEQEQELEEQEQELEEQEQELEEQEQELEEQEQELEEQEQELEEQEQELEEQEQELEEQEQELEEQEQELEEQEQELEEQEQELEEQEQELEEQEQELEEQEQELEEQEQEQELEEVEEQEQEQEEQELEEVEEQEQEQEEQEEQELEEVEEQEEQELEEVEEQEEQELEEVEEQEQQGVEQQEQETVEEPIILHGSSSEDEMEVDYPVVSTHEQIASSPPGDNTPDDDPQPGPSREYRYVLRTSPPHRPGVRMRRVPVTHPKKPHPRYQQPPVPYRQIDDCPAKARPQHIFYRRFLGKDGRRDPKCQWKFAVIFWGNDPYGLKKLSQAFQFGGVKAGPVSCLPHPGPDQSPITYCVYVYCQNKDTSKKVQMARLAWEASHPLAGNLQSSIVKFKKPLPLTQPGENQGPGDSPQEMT
Description: inhibitors of C-LANA binding to LBS DNA, dose response, biochemical, fluorescence polarization, cherry-picked samples (AID 504725).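 Further: fluorescence polarization of a labeled DNA duplex reporting LANA DNA binding; potency is for inhibitors that block LANA binding to the DNA.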 Details: species or system Human gammaherpesvirus 8.

Assay [13] relates to HEK293. In words: HEK cell cytotoxicity by LDH release, dose response, cytotoxicity control for IDE activator project, fluorescence, HEK cells (AID 588440).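 Further: cytotoxicity by LDH release measuring loss of membrane integrity.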 The format is functional, cell-based. To be noted: Homo sapiens.
Assay [14] deals with T5, Insulin-degrading enzyme. Description: activators of recombinant IDE enzyme, dose response, counter-screen for IDE activator project, biochemical, fluorescence polarization (AID 588681).

Molecules are shown by their SMILES. The source made the active and inactive calls.

Chain of Adenosylmethionine-8-amino-7-oxononanoate aminotransferase (P9WQ81 whole entry): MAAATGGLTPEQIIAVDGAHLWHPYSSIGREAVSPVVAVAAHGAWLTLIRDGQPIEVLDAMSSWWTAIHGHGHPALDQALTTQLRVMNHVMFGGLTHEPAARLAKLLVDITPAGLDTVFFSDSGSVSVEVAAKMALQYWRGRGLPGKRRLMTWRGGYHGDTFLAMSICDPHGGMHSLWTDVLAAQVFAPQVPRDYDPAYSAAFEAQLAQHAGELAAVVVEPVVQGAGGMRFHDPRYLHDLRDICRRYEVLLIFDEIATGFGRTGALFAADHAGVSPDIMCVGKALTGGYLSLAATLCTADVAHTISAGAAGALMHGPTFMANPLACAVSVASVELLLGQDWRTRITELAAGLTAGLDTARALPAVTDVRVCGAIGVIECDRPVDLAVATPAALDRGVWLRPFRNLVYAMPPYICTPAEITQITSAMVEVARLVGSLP

As to `Cc1ccc(-c2cc(C(=O)N(C)Cc3cnn(C)c3C)c3cc(Br)ccc3n2)cc1`, the AC50 in [1] was 26.6 µM (active); in assay [4], 43.1 µM (active); in assay [5] it was 29.1 µM (active). The IC50 at Interleukin-8 [2] was 1.11 µM (active); at Interleukin-8 [3] it was > 79 µM (inactive).

Turning to `COc1ccc(CNC(=O)c2ccc(=O)oc2)cc1OC`, the IC50 in [6] is 151 µM (inactive).

Regarding `Cn1c2ccccc2c2c(=O)oc3ccccc3c21`, the IC50 in assay [7] was > 99 µM (inactive).

As for `C=CCc1cccc2cc(C(=O)NCc3cccnc3)c(=O)oc12`, the IC50 in [8] is 21.2 µM (inactive).

For the compound `Cc1cc2c(c(=O)n1Cc1cccnc1)C(c1cccs1)C(C#N)=C(N)O2` (stereo not drawn), the AC50 in assay [9] is 2.08 µM (active).

For the compound `COc1cc2c(cc1NC(=O)c1cccnc1)CCCC2`, at Protein skinhead-1, the IC50 was > 100 µM (inactive). Further, the AC50 in assay [9] is 9.76 µM (active).

`COc1ccccc1N1CCN(/N=C/c2ccc(Cl)c([N+](=O)[O-])c2)CC1`: the IC50 in assay [7] was > 99 µM (inactive).

Take `CC(=O)OCCn1c2nc(=O)[nH]c(=O)c-2nc2cc(C)c(C)cc21`: the EC50 in [10] is 54.4 µM (inactive); at Insulin-degrading enzyme [11], > 54.7 µM (inactive); in the assay with HEK293 [12], > 54.7 µM (inactive); on Insulin-degrading enzyme [14] it was > 54.7 µM (inactive). Further, the AC50 on ORF 73 is 0.246 µM (active). In the assay on HEK293 [13], the IC50 is > 89.2 µM (inactive).
